Where two headings read alike, the source gives them in different places.
Key:
[1] = tested on: Key Broadleaf Weed and Crop Species; assay: Post-Emergent Test II: postemergent herbicidal activity, visual rating after 14 d (Table 7); assay type: in vivo; conditions: post-emergence, 336 h; for pest or weed control at 35 g/ha: 35 g ai/ha; for pest or weed control at 70 g/ha: 70 g ai/ha; for pest or weed control at 140 g/ha: 140 g ai/ha
In short: (§1)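 Visual 0-100% injury score (0 no injury, 100 complete kill) at 14 d post-spray, relative to untreated plants. Seedlings at 1st-2nd true leaf stage; track sprayer at 187 L/ha, highest rate plus ½×, ¼×, ⅛×, 1/16× serial dilutions. Subirrigated after treatment.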

[2] = tested on: Key Grass and Sedge Weeds as well as Grass Crops; assay: Post-Emergent Test II: postemergent herbicidal activity, visual rating after 14 d (Table 8); assay type: in vivo; conditions: post-emergence, 336 h; for pest or weed control at 35 g/ha: 35 g ai/ha; for pest or weed control at 70 g/ha: 70 g ai/ha; for pest or weed control at 140 g/ha: 140 g ai/ha
In short: as §1

[3] = lambsquarters (Chenopodium album), read-out: Visual Growth Reduction (%) 14 Days After Application CHEAL
[4] = oilseed rape, canola (Brassica napus), read-out: Visual Growth Reduction (%) 14 Days After Application BRSNN
[5] = redroot pigweed (Amaranthus retroflexus), read-out: Visual Growth Reduction (%) 14 Days After Application AMARE
[6] = sunflower (Helianthus annuus), read-out: Visual Growth Reduction (%) 14 Days After Application HELAN
[7] = velvetleaf (Abutilon theophrasti), read-out: Visual Growth Reduction (%) 14 Days After Application ABUTH
[8] = wild poinsettia (Euphorbia heterophylla), read-out: Visual Growth Reduction (%) 14 Days After Application EPHHL
[9] = barnyardgrass (Echinochloa crus-galli), read-out: Visual Growth Reduction (%) 14 Days After Application ECHCG
[10] = giant foxtail (Setaria faberi), read-out: Visual Growth Reduction (%) 14 Days After Application SETFA
[11] = maize, corn (Zea mays), read-out: Visual Growth Reduction (%) 14 Days After Application ZEAMX
[12] = rice (Oryza sativa), read-out: Visual Growth Reduction (%) 14 Days After Application ORYSA
[13] = wheat, spring (Triticum aestivum), read-out: Visual Growth Reduction (%) 14 Days After Application TRZAS
[14] = yellow nutsedge (Cyperus esculentus), read-out: Visual Growth Reduction (%) 14 Days After Application CYPES

COC(=O)c1nc(-c2ccc3c(c2C)OC(F)(F)O3)cc(N)c1Cl [Compound 35]
75 to 84%: pest or weed control at 70 g/ha [1, 7] | pest or weed control at 140 g/ha [1, 7]
85 to 94%: pest or weed control at 140 g/ha [1, 3] | pest or weed control at 35 g/ha [1, 5] | pest or weed control at 70 g/ha [1, 6]
30 to 44%: pest or weed control at 35 g/ha [1, 4] | pest or weed control at 140 g/ha [2, 11] | pest or weed control at 70 g/ha [2, 14]
0 to 29%: pest or weed control at 35 g/ha [1, 3] | pest or weed control at 35 g/ha [1, 7] | pest or weed control at 35 g/ha [1, 8] | pest or weed control at 70 g/ha [1, 8] | pest or weed control at 140 g/ha [1, 8] | pest or weed control at 35 g/ha [2, 9] | pest or weed control at 70 g/ha [2, 9] | pest or weed control at 140 g/ha [2, 9] | pest or weed control at 35 g/ha [2, 10] | pest or weed control at 70 g/ha [2, 10] | pest or weed control at 140 g/ha [2, 10] | pest or weed control at 35 g/ha [2, 11] | pest or weed control at 70 g/ha [2, 11] | pest or weed control at 35 g/ha [2, 12] | pest or weed control at 70 g/ha [2, 12] | pest or weed control at 140 g/ha [2, 12] | pest or weed control at 35 g/ha [2, 13] | pest or weed control at 70 g/ha [2, 13] | pest or weed control at 140 g/ha [2, 13] | pest or weed control at 35 g/ha [2, 14]
95 to 100%: pest or weed control at 70 g/ha [1, 5] | pest or weed control at 140 g/ha [1, 5] | pest or weed control at 140 g/ha [1, 6] | pest or weed control at 140 g/ha [2, 14]
60 to 74%: pest or weed control at 70 g/ha [1, 3] | pest or weed control at 140 g/ha [1, 4] | pest or weed control at 35 g/ha [1, 6]
45 to 59%: pest or weed control at 70 g/ha [1, 4]

Source: US9149038B2, “4-amino-6-(heterocyclic)picolinates and 6-amino-2-(heterocyclic)pyrimidine-4-carboxylates and their use as herbicides” (Dow AgroSciences LLC, priority 2013, dated 2015)
